pIC50: −log10 of the molar value.
Target: T1, Aldo-keto reductase family 1 member C3 (Homo sapiens, UniProt P42330)
T1 sequence (P42330 whole entry): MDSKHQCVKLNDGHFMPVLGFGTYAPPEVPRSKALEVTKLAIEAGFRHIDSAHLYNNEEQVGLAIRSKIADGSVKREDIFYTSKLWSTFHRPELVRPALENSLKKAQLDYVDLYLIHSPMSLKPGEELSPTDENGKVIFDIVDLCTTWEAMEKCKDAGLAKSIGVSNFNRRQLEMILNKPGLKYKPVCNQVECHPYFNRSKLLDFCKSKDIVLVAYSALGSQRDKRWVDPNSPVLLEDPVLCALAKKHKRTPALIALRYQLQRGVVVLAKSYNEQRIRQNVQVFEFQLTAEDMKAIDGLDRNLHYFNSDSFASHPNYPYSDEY
Assay: AKR1C3-Inhibitory Activity Assay: The enzyme used was recombinant human AKR1C3 (Aldo-keto reductase family 1 member C3; GenBank Accession No. NM_003739). This was expressed in E. coli as GST (glutathione S transferase) fusion protein and purified by glutathione Sepharose affinity chromatography. The GST was removed by digestion with thrombin and subsequent size exclusion chromatography (Dufort, I., Rheault, P., Huang, X F., Soucy, P., and Luu-The, V., Endocrinology 140, 568-574 (1999)).For the assay, 50 nl of a 100-fold concentrated solution of the test substance in DMSO were pipetted into a black low-volume 384-well microtiter plate (Greiner Bio-One, Frickenhausen, Germany), 2.5 μl of a solution of AKR1C3 in assay buffer [50 mM potassium phosphate buffer pH 7, 1 mM DTT, 0.0022% (w/v) Pluronic F-127, 0.01% BSA (w/v) and protease inhibitor cocktail (Complete, EDTA-free Protease Inhibitor Cocktail from Roche)] were added and the mixture was incubated for 15 min to allow pre-binding of the substances to the enzyme prior to the enzyme reaction. The enzyme reaction was then started by addition of 2.5 μl of a solution of NADPH (20 μM→final concentration in 5 μl of assay volume is 10 μM) and Coumberone (0.6 μM→final concentration in 5 μl of assay volume is 0.3 μM) in assay buffer, and the resulting mixture was incubated at 22° C. for the reaction time of typically 90 min. […]

Compound | pIC50
O=C(c1cnn[nH]1)N1CC2CCC(C1)N2S(=O)(=O)c1ccccc1Br | 9.15
O=C(c1cnn[nH]1)N1CC2CCC(C1)N2S(=O)(=O)c1ccccc1Cl | 8.85

Reference: ChEMBL document CHEMBL5726067, “[8-(phenylsulfonyl)-3,8-diazabicyclo[3.2.1]oct-3-yl](1H-1,2,3-triazol-4-yl)methanones” (2019)
